Measurements as given in patent US12139520B2 (priority 2020, dated 2024).
Bridge positions count the residues as written; N and C are the ends. Square brackets hold non-standard residues; d marks the D form. Peptide text beside a SMILES is read from it. Hyp = O=C(O)[C@@H]1C[C@@H](O)CN1; Cit = NC(=O)NCCC[C@H](N)C(=O)O

Experiments:
hAM1 receptor = hAM1 receptor (Homo sapiens, UniProt O60895+Q16602); experiment: cAMP assay for in vitro receptor activation, hAM1-R; type: cell-based; conditions: cAMP assay, hAM1 receptor; read-out: hAM1R EC50
hAM1 receptor, sequence (Q16602 23-461): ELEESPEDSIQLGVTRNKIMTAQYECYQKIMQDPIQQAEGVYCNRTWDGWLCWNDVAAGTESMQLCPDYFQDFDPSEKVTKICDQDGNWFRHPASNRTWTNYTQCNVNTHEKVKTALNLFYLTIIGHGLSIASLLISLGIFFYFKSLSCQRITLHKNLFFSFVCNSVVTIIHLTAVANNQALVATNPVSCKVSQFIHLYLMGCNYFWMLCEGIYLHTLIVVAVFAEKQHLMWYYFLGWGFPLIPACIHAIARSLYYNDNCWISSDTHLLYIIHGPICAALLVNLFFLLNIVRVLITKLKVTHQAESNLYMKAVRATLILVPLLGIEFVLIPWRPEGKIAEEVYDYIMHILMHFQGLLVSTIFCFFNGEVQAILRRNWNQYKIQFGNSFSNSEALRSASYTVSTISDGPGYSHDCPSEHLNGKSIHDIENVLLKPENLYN
hAM1 receptor, sequence (O60895 43-175 partner): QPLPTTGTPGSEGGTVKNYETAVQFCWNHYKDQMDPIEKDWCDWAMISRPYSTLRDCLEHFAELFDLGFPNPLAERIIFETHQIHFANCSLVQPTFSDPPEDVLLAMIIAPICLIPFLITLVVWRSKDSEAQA
Method in brief: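 Receptor activation, read as cAMP, was assessed in thawed cells of a monoclonal hAM1-overexpressing stable line, plated at 8000 cells/well in DPBS supplemented with 0.05% casein and 0.5 mM IBMX.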

hAMY3 receptor = target: T1, hAMY3 receptor (Homo sapiens, UniProt O60896+P30988); experiment: cAMP assay for in vitro receptor activation, hAMY3-R; type: cell-based; conditions: cAMP assay, hAMY3 receptor; read-out: hAMY3R EC50
T1 sequence (P30988 25-474): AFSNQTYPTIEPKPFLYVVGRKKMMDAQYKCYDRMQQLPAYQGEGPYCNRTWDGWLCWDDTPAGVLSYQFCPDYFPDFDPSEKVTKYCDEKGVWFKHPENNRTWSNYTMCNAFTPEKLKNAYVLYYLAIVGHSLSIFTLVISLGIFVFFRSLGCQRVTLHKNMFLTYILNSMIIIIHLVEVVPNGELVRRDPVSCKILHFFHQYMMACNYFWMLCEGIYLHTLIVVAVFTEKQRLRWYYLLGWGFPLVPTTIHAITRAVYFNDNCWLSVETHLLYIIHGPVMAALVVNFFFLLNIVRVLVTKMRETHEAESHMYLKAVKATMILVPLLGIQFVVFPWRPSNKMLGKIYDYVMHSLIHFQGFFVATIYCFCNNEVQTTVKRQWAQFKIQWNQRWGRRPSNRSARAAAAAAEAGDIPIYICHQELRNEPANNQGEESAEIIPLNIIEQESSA
T1 sequence (O60896 24-148 partner): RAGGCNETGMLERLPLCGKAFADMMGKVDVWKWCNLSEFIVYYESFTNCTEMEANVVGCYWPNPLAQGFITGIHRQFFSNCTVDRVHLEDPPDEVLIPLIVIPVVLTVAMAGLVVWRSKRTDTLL
Method in brief: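 Monoclonal cell line stably overexpressing hAMY3 receptor, plated in DPBS with 0.05% casein and 0.5 mM IBMX, was stimulated with graded compound doses for 30 min at room temperature. cAMP accumulation was read by time-resolved FRET one hour after adding detection reagents.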

[1] = Physical stability of peptide analogues (Thioflavin T fibrillation); type: physicochemical; conditions: maximum ThT signal normalized between hAMY maximum and buffer background; 40° C., shaking, four days; pH 7 per table title
Method in brief: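 Maximum ThT emission at 480 nm, after LOESS smoothing, is given as percent of the span from buffer background to hAMY. Conditions: 50 mM buffer at pH 4 or 7, 4 μM dye, 40 °C, repeated shaking, readings every 10 min for four days.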

Row | Structure (SMILES) | EC50 (hAM1 receptor) [nM] | EC50 (hAMY3 receptor) [nM] | Max ThT signal (%) [1] [%]
1 | CC[C@H](C)[C@H](NC(=O)[C@H](CCC(N)=O)NC(=O)[C@H](Cc1c[nH]cn1)NC(=O)[C@H](C)NC(=O)[C@H](CC(C)C)NC(=O)[C@H](Cc1c[nH]c2ccccc12)NC(=O)[C@H](CCC(N)=O)NC(=O)[C@@H](NC(=O)[C@@H](NC(=O)[C@@H]1CSSC[C@H](NC(=O)[C@@H](N)CCCCN)C(=O)N[C@@H](CC(N)=O)C(=O)N[C@@H]([C@@H](C)O)C(=O)N[C@@H](C)C(=O)N[C@@H]([C@@H](C)O)C(=O)N1)[C@@H](C)O)C(C)C)C(=O)N[C@@H](Cc1ccc(O)cc1)C(=O)N[C@@H](CCC(N)=O)C(=O)N[C@@H](Cc1ccccc1)C(=O)N[C@H](C(=O)N[C@@H](CC(=O)O)C(=O)N[C@@H](CCCCN)C(=O)N[C@@H](CC(=O)O)C(=O)N[C@@H](CCCCN)C(=O)N[C@@H](CC(=O)O)C(=O)N[C@@H](CC(N)=O)C(=O)N[C@H](C(=O)N[C@@H](C)C(=O)N1CCC[C@H]1C(=O)N[C@@H](C)C(=O)N[C@H](C(=O)N[C@@H](CC(N)=O)C(=O)N[C@H](C(=O)NCC(=O)N[C@@H](CO)C(=O)N[C@@H](CC(N)=O)C(=O)NCC(=O)N1C[C@H](O)C[C@H]1C(N)=O)C(C)C)[C@@H](C)O)C(C)C)[C@@H](C)O [compound 316] (H-KCNTATCTVQWLAHQIYQFTDKDKDNVAPATNVGSNG[Hyp]-NH2; disulfide 2-7) | > 5000 | 0.012 | 20.450
2 | CC[C@H](C)[C@H](NC(=O)[C@H](CCC(N)=O)NC(=O)[C@H](CC(=O)O)NC(=O)[C@H](C)NC(=O)[C@H](CC(C)C)NC(=O)[C@H](Cc1c[nH]c2ccccc12)NC(=O)[C@H](C)NC(=O)[C@@H](NC(=O)[C@@H](NC(=O)[C@@H]1CSSC[C@H](NC(=O)[C@@H](N)CCCCN)C(=O)N[C@@H](CC(N)=O)C(=O)N[C@@H]([C@@H](C)O)C(=O)N[C@@H](CO)C(=O)N[C@@H]([C@@H](C)O)C(=O)N1)[C@@H](C)O)C(C)C)C(=O)N[C@H](C(=O)N[C@@H](CCC(N)=O)C(=O)N[C@@H](Cc1ccccc1)C(=O)N[C@@H](CO)C(=O)N[C@@H](CC(N)=O)C(=O)N[C@@H](CCCCN)C(=O)N[C@@H](CC(=O)O)C(=O)N[C@@H](CCCCN)C(=O)N[C@@H](C)C(=O)N[C@@H](CCC(N)=O)C(=O)N[C@H](C(=O)N[C@@H](CO)C(=O)N1CCC[C@H]1C(=O)N1CCC[C@H]1C(=O)N[C@H](C(=O)N[C@@H](CCC(=O)O)C(=O)N[C@H](C(=O)NCC(=O)N1CCC[C@H]1C(=O)N[C@@H](CC(N)=O)C(=O)N[C@@H](CO)C(=O)N1C[C@H](O)C[C@H]1C(N)=O)C(C)C)[C@@H](C)O)C(C)C)[C@@H](C)O [compound 306] (H-KCNTSTCTVAWLADQITQFSNKDKAQVSPPTEVGPNS[Hyp]-NH2; disulfide 2-7; N-terminus assumed) | > 5000 | 0.003 | 3.000
3 | CC[C@H](C)[C@H](NC(=O)[C@H](CCC(N)=O)NC(=O)[C@H](Cc1c[nH]cn1)NC(=O)[C@H](C)NC(=O)[C@H](CC(C)C)NC(=O)[C@H](Cc1c[nH]c2ccccc12)NC(=O)[C@H](CCC(N)=O)NC(=O)[C@@H](NC(=O)[C@@H](NC(=O)[C@@H]1CSSC[C@H](NC(=O)CN)C(=O)N[C@@H](CCCNC(=N)N)C(=O)N[C@@H]([C@@H](C)O)C(=O)NCC(=O)N[C@@H]([C@@H](C)O)C(=O)N1)[C@@H](C)O)C(C)C)C(=O)N[C@@H](Cc1ccc(O)cc1)C(=O)N[C@@H](CCC(N)=O)C(=O)N[C@@H](Cc1ccccc1)C(=O)N[C@H](C(=O)N[C@@H](CC(=O)O)C(=O)N[C@@H](CCCCN)C(=O)N[C@@H](CC(=O)O)C(=O)N[C@@H](CCCCN)C(=O)N[C@@H](CC(=O)O)C(=O)N[C@@H](CC(N)=O)C(=O)N[C@H](C(=O)N[C@@H](C)C(=O)N1CCC[C@H]1C(=O)N[C@@H](CCCNC(=N)N)C(=O)N[C@H](C(=O)N[C@@H](CC(N)=O)C(=O)N[C@H](C(=O)NCC(=O)N1CCC[C@H]1C(=O)N[C@@H](CCC(N)=O)C(=O)NCC(=O)N1C[C@H](O)C[C@H]1C(N)=O)C(C)C)[C@@H](C)O)C(C)C)[C@@H](C)O [compound 323] (H-GCRTGTCTVQWLAHQIYQFTDKDKDNVAPRTNVGPQG[Hyp]-NH2; disulfide 2-7; N-terminus assumed) | > 5000 | 0.014 | 27.500

Next, values leading:

Row | EC50 (hAM1 receptor) [nM] | EC50 (hAMY3 receptor) [nM] | Max ThT signal (%) [1] [%] | Structure (SMILES)
4 | > 5000 | 0.063 | 24.200 | CC[C@H](C)[C@H](NC(=O)[C@H](CCC(N)=O)NC(=O)[C@H](Cc1c[nH]cn1)NC(=O)[C@H](C)NC(=O)[C@H](CC(C)C)NC(=O)[C@H](CCCNC(N)=O)NC(=O)[C@H](CCC(N)=O)NC(=O)[C@@H](NC(=O)[C@@H](NC(=O)[C@@H]1CSSC[C@H](NC(=O)CN)C(=O)N[C@@H](CCCNC(=N)N)C(=O)N[C@@H](Cc2ccccc2)C(=O)NCC(=O)N[C@@H]([C@@H](C)O)C(=O)N1)[C@@H](C)O)C(C)C)C(=O)N[C@@H](Cc1ccc(O)cc1)C(=O)N[C@@H](CCC(N)=O)C(=O)N[C@@H](Cc1ccccc1)C(=O)N[C@H](C(=O)N[C@@H](CC(=O)O)C(=O)N[C@@H](CCCCN)C(=O)N[C@@H](CC(=O)O)C(=O)N[C@@H](CCCCN)C(=O)N[C@@H](CC(=O)O)C(=O)N[C@@H](CC(N)=O)C(=O)N[C@H](C(=O)N[C@@H](C)C(=O)N1CCC[C@H]1C(=O)N[C@@H](CCCNC(=N)N)C(=O)N[C@@H](CO)C(=O)N[C@@H](CC(N)=O)C(=O)N[C@H](C(=O)N[C@@H](CO)C(=O)N1CCC[C@H]1C(=O)N[C@@H](CCC(N)=O)C(=O)NCC(=O)N1C[C@H](O)C[C@H]1C(N)=O)C(C)C)C(C)C)[C@@H](C)O [compound 293] (H-GCRFGTCTVQ[Cit]LAHQIYQFTDKDKDNVAPRSNVSPQG[Hyp]-NH2; disulfide 2-7; N-terminus assumed)
5 | > 5000 | 0.04 | 18.200 | CC[C@H](C)[C@H](NC(=O)[C@H](CCC(N)=O)NC(=O)[C@H](Cc1c[nH]cn1)NC(=O)[C@H](C)NC(=O)[C@H](CC(C)C)NC(=O)[C@H](CCCNC(=N)N)NC(=O)[C@H](CCC(N)=O)NC(=O)[C@@H](NC(=O)[C@@H](NC(=O)[C@@H]1CSSC[C@H](NC(=O)CN)C(=O)N[C@@H](CCCNC(=N)N)C(=O)N[C@@H](Cc2c[nH]c3ccccc23)C(=O)NCC(=O)N[C@@H]([C@@H](C)O)C(=O)N1)[C@@H](C)O)C(C)C)C(=O)N[C@@H](Cc1ccc(O)cc1)C(=O)N[C@@H](CCC(N)=O)C(=O)N[C@@H](Cc1ccccc1)C(=O)N[C@H](C(=O)N[C@@H](CC(=O)O)C(=O)N[C@@H](CCCCN)C(=O)N[C@@H](CC(=O)O)C(=O)N[C@@H](CCCCN)C(=O)N[C@@H](CC(=O)O)C(=O)N[C@@H](CC(N)=O)C(=O)N[C@H](C(=O)N[C@@H](C)C(=O)N1CCC[C@H]1C(=O)N[C@@H](CCCNC(=N)N)C(=O)N[C@@H](CO)C(=O)N[C@@H](CCCCN)C(=O)N[C@H](C(=O)N[C@@H](CO)C(=O)N1CCC[C@H]1C(=O)N[C@@H](CCC(N)=O)C(=O)N[C@H](C(=O)N1C[C@H](O)C[C@H]1C(N)=O)[C@@H](C)O)[C@@H](C)CC)C(C)C)[C@@H](C)O [compound 150] (H-GCRWGTCTVQRLAHQIYQFTDKDKDNVAPRSKISPQT[Hyp]-NH2; disulfide 2-7; N-terminus assumed)
